Conditions: Liquid, Vibrating tube method

Cc1ccc(O)cc1 [4-methylphenol]
Conditions	mass density [kg/m3]
312.9 K, 1002 kPa	1019.4
312.9 K, 2016 kPa	1020
312.9 K, 3017 kPa	1020.6
312.9 K, 4016 kPa	1021.1
312.9 K, 5002 kPa	1021.7
312.9 K, 6010 kPa	1022.2
312.9 K, 7000 kPa	1022.8
312.9 K, 8006 kPa	1023.3
312.9 K, 9001 kPa	1023.9
312.9 K, 10002 kPa	1024.4
312.9 K, 11006 kPa	1024.9
312.9 K, 12002 kPa	1025.5
312.9 K, 13015 kPa	1026
312.9 K, 14007 kPa	1026.6
312.9 K, 15006 kPa	1027.1
312.9 K, 16019 kPa	1027.6
312.9 K, 17004 kPa	1028.1
312.9 K, 18011 kPa	1028.6
312.9 K, 19009 kPa	1029.2
312.9 K, 20005 kPa	1029.7
312.9 K, 21008 kPa	1030.2
312.9 K, 22004 kPa	1030.7
312.9 K, 23023 kPa	1031.2
312.9 K, 24004 kPa	1031.7
312.9 K, 25006 kPa	1032.2
322.78 K, 1019 kPa	1011.6
322.78 K, 2015 kPa	1012.2
322.78 K, 3002 kPa	1012.8
322.78 K, 4013 kPa	1013.4
322.78 K, 5011 kPa	1013.9
322.78 K, 6018 kPa	1014.5
322.78 K, 7022 kPa	1015.1
322.78 K, 8001 kPa	1015.7
322.78 K, 9015 kPa	1016.3
322.78 K, 10006 kPa	1016.8
322.78 K, 11002 kPa	1017.4
322.78 K, 12018 kPa	1017.9
322.78 K, 13002 kPa	1018.4
322.78 K, 14016 kPa	1019
322.78 K, 15001 kPa	1019.5
322.78 K, 16000 kPa	1020.1
322.78 K, 17001 kPa	1020.6
322.78 K, 18029 kPa	1021.2
322.78 K, 19015 kPa	1021.7
322.78 K, 20011 kPa	1022.2
322.78 K, 21022 kPa	1022.8
322.78 K, 22002 kPa	1023.3
322.78 K, 23006 kPa	1023.8
322.78 K, 24010 kPa	1024.4
322.78 K, 25023 kPa	1024.9
332.54 K, 1040 kPa	1003.7
332.54 K, 2019 kPa	1004.3
332.54 K, 3013 kPa	1005
332.54 K, 4019 kPa	1005.6
332.54 K, 5001 kPa	1006.2
332.54 K, 6001 kPa	1006.8
332.54 K, 7002 kPa	1007.5
332.54 K, 8041 kPa	1008.1
332.54 K, 9000 kPa	1008.7
332.54 K, 10001 kPa	1009.2
332.54 K, 11006 kPa	1009.7
332.54 K, 12001 kPa	1010.4
332.54 K, 13008 kPa	1010.9
332.54 K, 14004 kPa	1011.5
332.54 K, 15003 kPa	1012.1
332.54 K, 16015 kPa	1012.7
332.54 K, 17011 kPa	1013.3
332.54 K, 18014 kPa	1013.9
332.54 K, 19014 kPa	1014.4
332.54 K, 20009 kPa	1014.9
332.54 K, 21013 kPa	1015.4
332.54 K, 22007 kPa	1016
332.54 K, 23000 kPa	1016.6
332.54 K, 24001 kPa	1017.1
332.54 K, 25032 kPa	1017.7
342.37 K, 1001 kPa	995.7
342.37 K, 2002 kPa	996.4
342.37 K, 3004 kPa	997.1
342.37 K, 4025 kPa	997.7
342.37 K, 5036 kPa	998.2
342.37 K, 6032 kPa	998.8
342.37 K, 7001 kPa	999.3
342.37 K, 8020 kPa	999.9
342.37 K, 9003 kPa	1000.6
342.37 K, 10002 kPa	1001.3
342.37 K, 11036 kPa	1001.9
342.37 K, 12001 kPa	1002.6
342.37 K, 13020 kPa	1003.2
342.37 K, 14019 kPa	1003.9
342.37 K, 15007 kPa	1004.5
342.37 K, 16000 kPa	1005.1
342.37 K, 17022 kPa	1005.6
342.37 K, 18014 kPa	1006.2
342.37 K, 19033 kPa	1006.8
342.37 K, 20005 kPa	1007.4
342.37 K, 21005 kPa	1007.9
342.37 K, 22010 kPa	1008.4
342.37 K, 22962 kPa	1009
342.37 K, 24021 kPa	1009.7
342.37 K, 25017 kPa	1010.2
352.15 K, 1023 kPa	987.9
352.15 K, 2007 kPa	988.5
352.15 K, 3000 kPa	989.1
352.15 K, 4003 kPa	989.8
352.15 K, 5001 kPa	990.4
352.15 K, 6009 kPa	991.1
352.15 K, 7001 kPa	991.7
352.15 K, 8037 kPa	992.4
352.15 K, 9008 kPa	993
352.15 K, 10040 kPa	993.7
352.15 K, 11006 kPa	994.3
352.15 K, 12001 kPa	994.9
352.15 K, 13001 kPa	995.5
352.15 K, 14009 kPa	996.2
352.15 K, 15000 kPa	996.8
352.15 K, 16010 kPa	997.4
352.15 K, 17028 kPa	998
352.15 K, 18020 kPa	998.6
352.15 K, 19045 kPa	999.3
352.15 K, 20018 kPa	1000
352.15 K, 21038 kPa	1000.5
352.15 K, 22000 kPa	1001.1
352.15 K, 23065 kPa	1001.8
352.15 K, 24024 kPa	1002.4
352.15 K, 25039 kPa	1002.9
361.9 K, 1017 kPa	979.6
361.9 K, 1991 kPa	980.3
361.9 K, 3004 kPa	981
361.9 K, 4027 kPa	981.5
361.9 K, 4992 kPa	982.3
361.9 K, 6000 kPa	983.1
361.9 K, 7033 kPa	983.6
361.9 K, 8010 kPa	984.4
361.9 K, 9001 kPa	985
361.9 K, 9998 kPa	985.8
361.9 K, 10994 kPa	986.5
361.9 K, 11976 kPa	987
361.9 K, 12949 kPa	987.7
361.9 K, 14010 kPa	988.3
361.9 K, 15017 kPa	989
361.9 K, 15992 kPa	989.6
361.9 K, 16992 kPa	990.3
361.9 K, 18007 kPa	990.8
361.9 K, 19034 kPa	991.6
361.9 K, 19992 kPa	992.1
361.9 K, 21000 kPa	992.9
361.9 K, 22059 kPa	993.4
361.9 K, 23020 kPa	994.1
361.9 K, 24014 kPa	994.8
361.9 K, 25002 kPa	995.3

Reference: the NIST ThermoML archive (doi:10.1021/je400055v)
